The term EC50 denotes the concentration giving half of the maximal effect. As a reminder, the IC50 is the concentration that inhibits the measured activity by half. Broadly, the Kd is the equilibrium constant for the complex coming apart.

We go through 10 molecules from ChEMBL document CHEMBL5247574, “Recent Progress on Bile Acid Receptor Modulators for Treatment of Metabolic Diseases” (J Med Chem, 2016).

Data set [1] addresses T1, G-protein coupled bile acid receptor 1 (Homo sapiens, UniProt Q8TDU6).
T1 sequence (Q8TDU6 whole entry): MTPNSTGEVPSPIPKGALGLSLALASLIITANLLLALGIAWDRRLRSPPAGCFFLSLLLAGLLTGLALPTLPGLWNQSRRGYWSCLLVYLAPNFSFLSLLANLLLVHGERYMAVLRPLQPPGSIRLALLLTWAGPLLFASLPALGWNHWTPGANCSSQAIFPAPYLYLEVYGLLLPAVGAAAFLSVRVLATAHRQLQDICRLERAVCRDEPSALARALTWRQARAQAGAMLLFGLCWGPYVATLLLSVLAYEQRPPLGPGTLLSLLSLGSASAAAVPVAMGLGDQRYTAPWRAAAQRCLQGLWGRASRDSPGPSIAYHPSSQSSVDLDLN
The data set is described as follows: Agonist activity at TGR5 in human HEK293 cells incubated for 30 mins. It is filed as cell-based.

In data set [2] the target is T2, Bile acid receptor (Homo sapiens, UniProt Q96RI1).
T2 sequence (Q96RI1 whole entry): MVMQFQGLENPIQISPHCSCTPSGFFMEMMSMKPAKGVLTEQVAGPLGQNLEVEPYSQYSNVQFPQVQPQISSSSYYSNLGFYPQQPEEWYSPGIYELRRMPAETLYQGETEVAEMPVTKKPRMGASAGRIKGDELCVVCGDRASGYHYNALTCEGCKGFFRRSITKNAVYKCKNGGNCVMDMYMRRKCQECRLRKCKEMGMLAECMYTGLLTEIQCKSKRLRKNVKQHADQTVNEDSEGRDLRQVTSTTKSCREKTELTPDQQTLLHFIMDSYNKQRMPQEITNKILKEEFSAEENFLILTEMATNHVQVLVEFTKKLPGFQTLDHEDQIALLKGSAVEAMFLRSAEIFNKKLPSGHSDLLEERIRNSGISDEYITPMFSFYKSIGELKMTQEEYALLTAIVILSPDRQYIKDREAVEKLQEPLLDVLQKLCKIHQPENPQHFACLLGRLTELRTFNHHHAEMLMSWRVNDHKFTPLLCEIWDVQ
The data set is described as follows: Antagonist activity at FXR in human HepG2 cells incubated for 24 hrs by dual luciferase reporter assay. It is filed as cell-based. In general terms: In a reporter assay the amount or activity of a reporter protein is the signal.

Data set [3] can be described thus: Binding affinity to FXR alpha LBD (unknown origin). On the set-up: species or system Homo sapiens.
Data set [4] concerns the target T2, Bile acid receptor. The data set is described as follows: Agonist activity at GAL4-fused N-terminal GST tagged human FXR LBD expressed in human HEK293 cells by one hybrid reporter assay. It is filed as cell-based.
Data set [5] is described as follows: Toxicity in DIO mouse assessed as plasma triglycerides at 30 mg/kg per day administered for 4 weeks. It is filed as organism-based. The following applies: in vivo, 672 h.
Data set [6] is described as follows: Toxicity in DIO mouse assessed as reduction in total cholesterol level at 30 mg/kg per day administered for 4 weeks. The arrangement: scale not given: the % may be the effect or the level left. It is filed as organism-based. The conditions noted are these: in vivo, 672 h.
For data set [7], the target named is T3, G-protein coupled bile acid receptor 1 (Mus musculus) (UniProt Q80SS6).
T3 sequence (whole entry): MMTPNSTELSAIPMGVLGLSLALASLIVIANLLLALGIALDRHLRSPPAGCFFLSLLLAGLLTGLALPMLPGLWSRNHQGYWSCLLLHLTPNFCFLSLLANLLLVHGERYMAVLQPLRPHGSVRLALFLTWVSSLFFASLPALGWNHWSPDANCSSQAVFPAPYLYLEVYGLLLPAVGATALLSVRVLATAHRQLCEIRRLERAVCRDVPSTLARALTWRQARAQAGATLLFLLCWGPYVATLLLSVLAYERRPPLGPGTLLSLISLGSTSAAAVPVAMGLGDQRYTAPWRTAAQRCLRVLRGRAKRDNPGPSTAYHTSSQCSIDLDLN
Nature of the data set: In vivo agonist activity at TGR5 in mouse assessed as increase in GLP-1 secretion level at 30 mg/kg, po relative to control.

The target in data set [8] is T1, G-protein coupled bile acid receptor 1. Nature of the data set: Agonist activity at TGR5 in human HEK293 cells assessed as increase in cAMP production. It is filed as cell-based. For orientation: cAMP levels reflect the balance of adenylyl cyclase and phosphodiesterase activity.
Data set [9] addresses T3, G-protein coupled bile acid receptor 1 (Mus musculus). Nature of the data set: In vivo agonist activity at TGR5 in mouse assessed as reduction in blood glucose level at 30 mg/kg, po relative to control. It is filed as functional, organism-based. On the set-up: scale not given: the % may be the effect or the level left.
Data set [10] shares this target. The data set is described as follows: In vivo agonist activity at TGR5 in mouse assessed as increase in insulin level at 30 mg/kg, po relative to control.
Data set [11] has as its target T4, G-protein coupled bile acid receptor 1 (Rattus norvegicus) (UniProt Q80T02).
T4 sequence (whole entry): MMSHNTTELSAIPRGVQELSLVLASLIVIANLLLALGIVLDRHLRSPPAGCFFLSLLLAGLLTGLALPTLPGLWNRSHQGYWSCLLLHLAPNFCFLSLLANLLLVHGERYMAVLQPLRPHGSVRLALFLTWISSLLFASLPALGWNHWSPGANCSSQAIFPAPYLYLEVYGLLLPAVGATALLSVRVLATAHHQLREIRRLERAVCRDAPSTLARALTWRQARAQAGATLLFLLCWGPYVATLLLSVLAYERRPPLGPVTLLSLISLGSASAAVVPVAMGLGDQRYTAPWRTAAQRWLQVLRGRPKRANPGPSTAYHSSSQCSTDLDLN
Nature of the data set: Agonist activity at TGR5 in rat Primary intestinal cell assessed as stimulation of GLP-1 secretion incubated for 2 hrs by ELISA analysis relative to control. The conditions noted are these: filed as agonist. It is filed as cell-based. Background: ELISA stands for enzyme-linked immunosorbent assay.

Data set [12] concerns the target T2, Bile acid receptor. The data set is described as follows: Agonist activity at human FXR expressed in Escherichia coli BL21 (DE3) assessed as effect on europium labeled SRC-1 peptide recruitment by HTRF assay.
In data set [13] the target is T1, G-protein coupled bile acid receptor 1. The data set is described as follows: Agonist activity at TGR5 in human T-lymphocyte cells assessed as increase in cAMP production. It is filed as cell-based.
Data set [14] can be described thus: Permeability of compound by PAMPA assay. It is filed as ADME.
The target in data set [15] is T2, Bile acid receptor. Nature of the data set: Agonist activity at FXR (unknown origin) by FRET assay.
For data set [16], the target named is T2, Bile acid receptor. The data set is described as follows: Antagonist activity at FXR (unknown origin) by HTFR assay.
Data set [17] has as its target T2, Bile acid receptor. Nature of the data set: Antagonist activity at FXR in human HepG2 cells. It is filed as cell-based.
Data set [18] in a line: In vivo agonist activity at TGR5 in streptozotocin-induced diabetic hamster model assessed as increase in insulin secretion at 20 mg/kg, po bid administered for 2 weeks by oral glucose tolerance test relative to control. It is filed as functional, Cricetulus griseus.
Data set [19] in a line: In vivo agonist activity at TGR5 in streptozotocin-induced diabetic hamster model assessed as decrease in non-HDL level at 20 mg/kg, po bid administered for 2 weeks by oral glucose tolerance test relative to control. On the set-up: scale not given: the % may be the effect or the level left. The following applies: Cricetulus griseus.
The target of data set [20] is T5, G-protein coupled bile acid receptor 1 (Homo sapiens) (UniProt Q8TDU6).
T5 sequence (whole entry): T1 sequence (Q8TDU6 whole entry)
Nature of the data set: Agonist activity at human TGR5 transfected in human NCI-H716 cells assessed as fold increase in GLP-1 secretion. It is filed as cell-based. The conditions noted are these: filed as agonist.

A short description of data set [21]: In vivo agonist activity at TGR5 in streptozotocin-induced diabetic hamster model assessed as decrease in LDL level at 20 mg/kg, po bid administered for 2 weeks by oral glucose tolerance test relative to control. The arrangement: scale not given: the % may be the effect or the level left. The following applies: Cricetulus griseus.
The nature of data set [22]: In vivo agonist activity at TGR5 in streptozotocin-induced diabetic hamster model assessed as increase in oxygen consumption at 20 mg/kg, po bid administered for 2 weeks by oral glucose tolerance test relative to control. It is filed as functional, Cricetulus griseus.
A short description of data set [23]: In vivo agonist activity at TGR5 in streptozotocin-induced diabetic hamster model assessed as reduction in glucose excursion at 38 mg/kg, po by oral glucose tolerance test relative to control. It is filed as functional, Cricetulus griseus. On the set-up: scale not given: the % may be the effect or the level left.
Data set [24] can be described thus: In vivo agonist activity at TGR5 in streptozotocin-induced diabetic hamster model assessed as increase in HDL level at 20 mg/kg, po bid administered for 2 weeks by oral glucose tolerance test relative to control. It is filed as functional, Cricetulus griseus.
Data set [25] can be described thus: In vivo agonist activity at TGR5 in streptozotocin-induced diabetic hamster model assessed as increase in HDL/LDL ratio at 20 mg/kg, po bid administered for 2 weeks by oral glucose tolerance test relative to control.
Data set [26] can be described thus: In vivo agonist activity at TGR5 in streptozotocin-induced diabetic hamster model assessed as reduction in body weight at 20 mg/kg, po bid administered for 2 weeks by oral glucose tolerance test relative to control. It is filed as functional, Cricetulus griseus. On the set-up: scale not given: the % may be the effect or the level left.
Data set [27] can be described thus: In vivo agonist activity at TGR5 in streptozotocin-induced diabetic hamster model assessed as decrease in plasma triglyceride at 20 mg/kg, po bid administered for 2 weeks by oral glucose tolerance test relative to control. On the set-up: scale not given: the % may be the effect or the level left. It is filed as functional, Cricetulus griseus.

Take `COc1ccc(Cc2nnc(SCc3c(F)cccc3Cl)n2-c2ccc(F)cc2F)cc1OC`: in data set [1], the EC50 is below 100 nM.
On Bile acid receptor [2], `CN(C)c1cc(Cl)c(C(=O)N(Cc2ccccc2)c2ccc(O)c(C(C)(C)C)c2)c(Cl)c1` came in with an IC50 of 4500 nM. The molecule also registered a Kd in data set [3] of 8300 nM.
The molecule `O=C(O)c1ccc(C2CC2c2ccc(OCc3c(-c4c(Cl)cccc4Cl)noc3C3CC3)cc2Cl)cc1` (stereo not drawn) gave an EC50 on Bile acid receptor [4] of 10 nM. Besides, the Activity in data set [5] came out at 50%; in data set [6] it was 70%.
With `O=c1c2ccccc2nc(-c2ccc(F)cc2)n1NCc1ccc(Br)cc1`, the Activity is 70% in [7], 52% in data set [9] and 130% in data set [10]. The EC50 in data set [8] is below 10000 nM.
On to `O=C1COc2nccc(-c3ccccc3F)c2CN1Cc1cc(C(F)(F)F)cc(C(F)(F)F)c1`, for which the Activity in [11] was found to be 360%.
Regarding `CC(C)c1onc(-c2c(Cl)cccc2Cl)c1COc1ccc2c(ccn2Cc2ccc(-c3nnn[nH]3)cc2)c1`, the EC50 on Bile acid receptor [12] is below 100 nM.
For the molecule `CS(=O)(=O)c1ccc(CC2CCC(c3c(C(=O)N4CCC(c5ccc(F)cc5)C4)cnn3-c3ccc(F)cc3)CC2)cc1` (stereo not drawn), the EC50 in data set [13] is 7 nM.
Consider `CC(C)n1nc(C(=O)O)cc1[C@H]1C[C@](O)(c2ccc(OCc3c(-c4c(Cl)cccc4Cl)noc3C3CC3)cc2Cl)C1`, for which the EC50 on Bile acid receptor [4] is 10 nM; at Bile acid receptor [15] it was below 25 nM. Besides, the permeability in data set [14] worked out at 46.1%.
On to `O=C(O)c1ccccc1-c1ccc(Cn2ccc(OCc3c(-c4ccccc4Cl)noc3-c3cccs3)n2)cc1`, for which the figures for the IC50 against Bile acid receptor [16] and against Bile acid receptor [17] were 10000 nM and 12200 nM, respectively.
Take `CN(C(=O)c1c(-c2ccc(F)cc2)nc2ncccn12)c1ccc(Cl)cc1`: the Activity in [18] worked out at 80%; in data set [19], 24%; in data set [21], 14%; in [22], 7.9%; in [23], 39%; in data set [24], 7%. For the same molecule, the Activity in data set [25] came out at 24%; in data set [26] it was 5.2%; in data set [27], 43%. The fold change (FC) in [20] worked out at 3.7.
